Experimental data from patent publication US5958935A, “Substituted 2-anilinopyrimidines useful as protein kinase inhibitors” (Celltech Therapeutics Limited, priority 1995, dated 1999).
pIC50: −log10 of the molar value.

Legend:
Assay type in all cases: biochemical
human p56^lck = human p56^lck (Homo sapiens, UniProt P06239); assay: p56^lck kinase assay; conditions: 1 μM ATP, RR-src, pH 7.5, 30° C., 15 min
Method: The tyrosine kinase activity of p56^lck was determined using a RR-src peptide (RRLIEDNEYTARG) and [γ-^33 P]ATP as substrates. Quantitation of the ^33 P-phosphorylated peptide formed by the action of p56^lck was achieved using an adaption of the method of Geissler et al (J. Biol. Chem. (1990) 265, 22255-22261).
(§1) All assays were performed in 20 mM HEPES pH 7.5 containing 10 mM MgCl2, 10 mM MnCl2, 0.05% Brij, 1 μM ATP (0.5 μCi[γ-^33 P]ATP) and 0.8 mg/ml RR-src. […] After incubation at 30° C. for 15 min, the reaction was terminated by the addition of one-third volume of stop reagent (0.25 mM EDTA and 33 mM ATP in dH2 O). A 15 μl aliquot was removed, spotted onto a P-30 filtermat (Wallac, Milton Keynes, UK), and washed sequentially with 1% acetic acid and dH2 O to remove ATP. The bound ^33 P-RR-src was quantitated by scintillation counting of the filtermat in a Betaplate scintillation counter (Wallac, Milton Keynes, UK) after addition of Meltilex scintillant (Wallac, Milton Keynes, UK). The dpm obtained, being directly proportional to the amount of ^33 P-RR-src produced by p56^lck, were used to determine the IC50 for each compound.

human p59^fyn = assay: p59^fyn kinase assay; conditions: in words
Method: Compounds of the invention were assayed for p59^fyn inhibitory activity in a similar manner to the p56^lck assay, using human p59^fyn.

remaining kinases = assay: Selectivity over the remaining kinases described (p56^lck, p59^fyn, EGFr, ZAP-70, Csk, protein kinase C assays)
Method: as §1
IC50 values for each test inhibitor were determined as described previously in the p56^lck assay.
(§2) The tyrosine kinase activity of ZAP-70 was determined using a capture assay based on that employed above for p56^lck. The RR-src peptide was replaced with polyGlu-Tyr (Sigma; Poole, UK) at a final concentration of 17 μg/ml. After addition of the stopped reaction to the filtermat, trichloroacetic acid 10% (w/v) was employed as the wash reagent instead of acetic acid and a final wash in absolute ethanol was also performed before scintillation counting. IC50 values for each test inhibitor were determined as described above in the p56^lck assay.
(§3) Inhibitor activity against protein kinase C (PKC) was determined using PKC obtained from Sigma Chemical Company (Poole, UK) and a commercially available assay system (Amersham International plc, Little Chalfont, UK). Briefly, PKC catalyses the transfer of the γ-phosphate (^32 p) of ATP to the threonine group on a peptide specific for PKC.
Phosphorylated peptide is bound to phosphocellulose paper, subsequently quantified by scintillation counting and IC50 values determined as before.

ZAP-70 = molecular target: T1, ZAP-70 (Homo sapiens, UniProt P43403); assay: ZAP-70 kinase assay; conditions: polyGlu-Tyr 17 μg/ml
T1 sequence (P43403 1-619): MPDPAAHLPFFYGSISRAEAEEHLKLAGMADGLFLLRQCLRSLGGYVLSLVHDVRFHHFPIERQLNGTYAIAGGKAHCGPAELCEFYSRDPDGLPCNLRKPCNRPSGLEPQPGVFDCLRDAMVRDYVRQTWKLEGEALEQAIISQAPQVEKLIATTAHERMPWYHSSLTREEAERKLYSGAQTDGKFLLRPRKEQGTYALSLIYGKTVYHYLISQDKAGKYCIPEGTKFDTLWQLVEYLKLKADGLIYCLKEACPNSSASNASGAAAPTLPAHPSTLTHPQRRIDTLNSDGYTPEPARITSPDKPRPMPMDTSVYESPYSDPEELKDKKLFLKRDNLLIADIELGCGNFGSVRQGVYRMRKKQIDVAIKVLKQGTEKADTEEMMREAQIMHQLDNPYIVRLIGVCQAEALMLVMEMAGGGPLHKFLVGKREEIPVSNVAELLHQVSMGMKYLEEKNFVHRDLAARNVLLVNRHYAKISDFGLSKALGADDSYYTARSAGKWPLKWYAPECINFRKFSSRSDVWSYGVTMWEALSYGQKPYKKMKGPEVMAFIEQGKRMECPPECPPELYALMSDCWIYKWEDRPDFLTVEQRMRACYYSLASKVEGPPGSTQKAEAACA
Method: as §2

protein kinase C (PKC) = assay: Protein kinase C assay; conditions: for activity in the protein kinase C assay: in words
Method: as §3, with “PKC. Phosphorylated peptide is bound to phosphocellulose paper, subsequently quantified by scintillation counting and IC50 values determined as before.” for “PKC.”

[1] = relative to p56^lck, remaining = other than p56^lck and p59^fyn
[2] = relative to ZAP-70, remaining = other than ZAP-70 and protein kinase C
[3] = relative to protein kinase C, remaining = other than protein kinase C

Chain of human p56^lck (P06239 whole entry): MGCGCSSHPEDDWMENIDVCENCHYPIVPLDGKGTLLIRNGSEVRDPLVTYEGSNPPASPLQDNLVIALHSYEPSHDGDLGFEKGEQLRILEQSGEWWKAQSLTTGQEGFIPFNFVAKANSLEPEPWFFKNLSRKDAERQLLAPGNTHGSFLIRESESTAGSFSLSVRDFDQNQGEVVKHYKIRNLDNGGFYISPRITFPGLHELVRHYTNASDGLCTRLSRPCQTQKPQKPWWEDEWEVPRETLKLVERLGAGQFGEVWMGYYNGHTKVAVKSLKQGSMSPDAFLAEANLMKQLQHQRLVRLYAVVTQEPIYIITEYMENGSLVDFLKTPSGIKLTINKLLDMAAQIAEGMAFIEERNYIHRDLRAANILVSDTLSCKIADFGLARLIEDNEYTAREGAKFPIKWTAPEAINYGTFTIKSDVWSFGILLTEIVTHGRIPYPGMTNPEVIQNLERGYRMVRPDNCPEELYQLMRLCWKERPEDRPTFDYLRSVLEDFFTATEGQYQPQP

Row | pIC50 (human p56^lck) | activity against p59^fyn (human p59^fyn) | IC50 values at least 10× greater against the remaining kinases (remaining kinases; [1]) | pIC50 (ZAP-70) | activity in the protein kinase C assay (protein kinase C (PKC)) | IC50 values at least 10× greater against the remaining kinases (remaining kinases; [2]) | pIC50 (protein kinase C (PKC)) | IC50 values at least 10× greater against the remaining kinases (remaining kinases; [3]) | SMILES
1 | 7.40 | active | at least 10 × |  |  |  |  |  | CCOC(=O)Cc1ccc(Nc2ccnc(Nc3cc(OC)c(OC)c(OC)c3)n2)cc1 [Example 103, N4-(4-(Ethoxycarbonylmethyl)phenyl)-N2-(3,4,5-trimethoxyphenyl)-2,4-pyrimidinediamine]
2 |  |  |  |  |  |  | 7.04 | at least 10 × | COc1cc(Nc2nccc(-c3ccc(NCCC4CCCN4C)nc3)n2)cc(OC)c1OC (stereo not shown) [Example 81, 4-(2-(2-(1-Methylpyrrolidin-2-yl)ethylamino)pyridin-5-yl)-N-(3,4,5-trimethoxyphenyl)-2-pyrimidineamine]
3 | 6.67 | active | at least 10 × |  |  |  |  |  | COc1ccc(Nc2ccnc(Nc3cc(OC)c(OC)c(OC)c3)n2)cc1OC [Example 96, N4-(3,4-Dimethoxyphenyl)-N2-(3,4,5-trimethoxyphenyl)-2,4-pyrimidinediamine]

Second part, the molecule before the results:

Row | SMILES | pIC50 (human p56^lck) | activity against p59^fyn (human p59^fyn) | IC50 values at least 10× greater against the remaining kinases (remaining kinases; [1]) | pIC50 (ZAP-70) | activity in the protein kinase C assay (protein kinase C (PKC)) | IC50 values at least 10× greater against the remaining kinases (remaining kinases; [2]) | pIC50 (protein kinase C (PKC)) | IC50 values at least 10× greater against the remaining kinases (remaining kinases; [3])
4 | COc1cc(Nc2nccc(-c3ccc(NCCN)nc3)n2)cc(OC)c1OC [Example 64, 4-(2-(2-Aminoethylamino)pyridin-5-yl)-N-(3,4,5-trimethoxyphenyl)-2-pyrimidineamine] |  |  |  | 6.91 | active | at least 10 × |  | 
5 | COc1cc(Nc2nccc(-c3ccc(NCCCN)nc3)n2)cc(OC)c1OC [Example 66, 4-(2-(3-Aminopropylamino)pyridin-5-yl)-N-(3,4,5-trimethoxyphenyl)-2-pyrimidineamine] |  |  |  | 7.17 | active | at least 10 × |  | 
6 | COc1cc(Nc2nccc(-c3cccc(OCCCN)c3)n2)cc(OC)c1OC.Cl.Cl [Example 48, 4-(3-(3-Aminopropoxy)phenyl)-N-(3,4,5-trimethoxyphenyl)-2-pyrimidineamine dihydrochloride] |  |  |  |  |  |  | 7.66 | at least 10 ×
